Columns and labels:
[1] = system: Mycolicibacterium smegmatis; test: Antimycobacterial activity against Mycobacterium smegmatis assessed as inhibition of mycobacterial growth incubated for 48 hrs in presence of 50 uM menaquinone-4 and 50 uM undecaprenyl phosphate; assay type: functional, organism-based
[2] = molecular target: T1, Trehalose monomycolate exporter MmpL3 (Mycolicibacterium smegmatis, UniProt A0QP27); test: Binding affinity to Mycobacterium smegmatis MmpL3 by surface plasmon resonance assay
T1 sequence (A0QP27 whole entry): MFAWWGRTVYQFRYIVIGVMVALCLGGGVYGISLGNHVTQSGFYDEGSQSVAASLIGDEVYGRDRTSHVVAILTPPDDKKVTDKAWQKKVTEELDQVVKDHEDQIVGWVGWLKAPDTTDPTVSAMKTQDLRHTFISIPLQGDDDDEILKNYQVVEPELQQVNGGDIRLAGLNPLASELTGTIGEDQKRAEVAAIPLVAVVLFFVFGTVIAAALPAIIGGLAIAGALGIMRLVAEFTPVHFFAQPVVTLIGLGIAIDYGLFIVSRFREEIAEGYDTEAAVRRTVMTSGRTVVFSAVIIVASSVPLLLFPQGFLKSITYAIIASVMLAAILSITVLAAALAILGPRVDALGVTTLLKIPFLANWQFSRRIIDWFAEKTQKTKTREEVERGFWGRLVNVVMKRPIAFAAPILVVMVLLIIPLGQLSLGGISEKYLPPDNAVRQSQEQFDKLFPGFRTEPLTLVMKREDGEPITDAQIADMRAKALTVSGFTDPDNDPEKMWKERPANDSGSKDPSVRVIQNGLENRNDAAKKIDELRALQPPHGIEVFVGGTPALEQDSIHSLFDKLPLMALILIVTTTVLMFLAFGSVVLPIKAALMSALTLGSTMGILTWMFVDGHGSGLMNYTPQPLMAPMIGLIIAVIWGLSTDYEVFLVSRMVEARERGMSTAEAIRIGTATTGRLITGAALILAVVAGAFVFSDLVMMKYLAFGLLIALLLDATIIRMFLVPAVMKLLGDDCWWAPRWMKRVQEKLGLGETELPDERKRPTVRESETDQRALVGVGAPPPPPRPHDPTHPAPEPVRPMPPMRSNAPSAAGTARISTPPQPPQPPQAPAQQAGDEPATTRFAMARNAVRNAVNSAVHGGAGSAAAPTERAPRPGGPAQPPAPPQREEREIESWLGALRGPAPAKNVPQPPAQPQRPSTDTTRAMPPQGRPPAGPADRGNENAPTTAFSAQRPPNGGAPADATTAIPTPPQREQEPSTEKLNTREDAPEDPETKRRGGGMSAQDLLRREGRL

[3] = system: Mycolicibacterium smegmatis; test: Antimycobacterial activity against Mycobacterium smegmatis assessed as inhibition of mycobacterial growth incubated for 48 hrs in presence of 200 uM menaquinone-4; assay type: functional, organism-based
[4] = system: Mycobacterium tuberculosis; test: Antimycobacterial activity against Mycobacterium tuberculosis HN878 assessed as inhibition of mycobacterial growth incubated for 5 days in presence of 50 uM undecaprenyl phosphate; assay type: functional, organism-based; details: HN878, 120 h
[5] = Inhibition of Staphylococcus aureus farnesyl diphosphate synthase
[6] = molecular target: T2, (2Z,6E)-farnesyl diphosphate synthase (Mycobacterium tuberculosis, UniProt P9WFF5); test: Inhibition of Mycobacterium tuberculosis cis-farnesyl diphosphate synthase
T2 sequence (P9WFF5 whole entry): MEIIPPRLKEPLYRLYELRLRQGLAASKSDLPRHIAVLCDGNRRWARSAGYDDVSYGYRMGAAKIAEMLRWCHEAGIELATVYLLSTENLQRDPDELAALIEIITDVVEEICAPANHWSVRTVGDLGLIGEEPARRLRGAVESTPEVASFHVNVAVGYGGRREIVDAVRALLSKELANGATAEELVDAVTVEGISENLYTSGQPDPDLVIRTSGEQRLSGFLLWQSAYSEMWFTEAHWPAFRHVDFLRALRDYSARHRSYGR

[7] = molecular target: T1, Trehalose monomycolate exporter MmpL3; test: Binding affinity to C-terminal 10XHis-tagged Mycobacterium smegmatis mc2 155 MmpL3 expressed in Mycobacterium smegmatis mc2 155 cells by microscale thermophoresis analysis
[8] = system: Mycolicibacterium smegmatis; test: Antimycobacterial activity against Mycobacterium smegmatis assessed as inhibition of mycobacterial growth incubated for 48 hrs in presence of 50 uM menaquinone-7; assay type: functional, organism-based
[9] = system: Mycolicibacterium smegmatis; test: Antimycobacterial activity against Mycobacterium smegmatis assessed as inhibition of mycobacterial growth incubated for 48 hrs in presence of 200 uM undecaprenyl phosphate; assay type: functional, organism-based
[10] = Inhibition of Escherichia coli undecaprenyl diphosphate synthase
[11] = system: Mycolicibacterium smegmatis; test: Antimycobacterial activity against Mycobacterium smegmatis assessed as inhibition of mycobacterial growth incubated for 48 hrs in presence of 25 uM undecaprenyl phosphate; assay type: functional, organism-based
[12] = Drug metabolism in Mycobacterium tuberculosis HN878 assessed as N1-(adamantan-1-yl)ethane-1,2-diamine metabolite formation at 10 uM incubated for 24 hrs by LC-MS analysis; assay type: ADME
[13] = system: Mycolicibacterium smegmatis; test: Antimycobacterial activity against Mycobacterium smegmatis assessed as inhibition of mycobacterial growth incubated for 48 hrs in presence of 50 uM menaquinone-4; assay type: functional, organism-based
[14] = system: Mycolicibacterium smegmatis; test: Rescue fold, ratio of IC50 for antimycobacterial activity against Mycobacterium smegmatis in presence of 200 uM menaquinone-4 to IC50 for antimycobacterial activity against Mycobacterium smegmatis; assay type: functional
[15] = Inhibition of Plasmodium vivax geranylgeranyl diphosphate synthase
Cell membrane = test: Uncoupling activity in Escherichia coli inverted membrane vesicles assessed as collapse of pH gradient by measuring increase in ACMA fluorescence intensity by fluorometric analysis; assay type: subcellular
[16] = system: Mycolicibacterium smegmatis; test: Antimycobacterial activity against Mycobacterium smegmatis assessed as inhibition of mycobacterial growth incubated for 48 hrs in presence of 50 uM Upp; assay type: functional, organism-based
[17] = Inhibition of Staphylococcus aureus undecaprenyl diphosphate synthase
[18] = system: Mycolicibacterium smegmatis; test: Rescue fold, ratio of IC50 for antimycobacterial activity against Mycobacterium smegmatis in presence of 50 uM undecaprenyl phosphate to IC50 for antimycobacterial activity against Mycobacterium smegmatis; assay type: functional
[19] = system: Mycolicibacterium smegmatis; test: Antimycobacterial activity against Mycobacterium smegmatis assessed as inhibition of mycobacterial growth incubated for 48 hrs in presence of 100 uM undecaprenyl phosphate; assay type: functional, organism-based
[20] = system: Mycobacterium tuberculosis; test: Antimycobacterial activity against Mycobacterium tuberculosis HN878 assessed as inhibition of mycobacterial growth incubated for 5 days; assay type: functional, organism-based; details: HN878, 120 h
[21] = system: Mycolicibacterium smegmatis; test: Antimycobacterial activity against Mycobacterium smegmatis assessed as inhibition of mycobacterial growth incubated for 48 hrs in presence of 12.5 uM undecaprenyl phosphate; assay type: functional, organism-based
[22] = system: Mycolicibacterium smegmatis; test: Antimycobacterial activity against Mycobacterium smegmatis assessed as inhibition of mycobacterial growth incubated for 48 hrs in presence of 25 uM menaquinone-4; assay type: functional, organism-based
[23] = Inhibition of Staphylococcus aureus dehydrosqualene synthase
[24] = system: Mycolicibacterium smegmatis; test: Antimycobacterial activity against Mycobacterium smegmatis assessed as inhibition of mycobacterial growth incubated for 48 hrs; assay type: functional, organism-based
[25] = molecular target: T3, Undecaprenyl-diphosphatase (Escherichia coli (strain K12), UniProt P60932); test: Inhibition of UppP in Escherichia coli using FPP as substrate pretreated for 20 mins followed by FPP addition and measured after 60 mins by malachite green based assay
T3 sequence (P60932 whole entry): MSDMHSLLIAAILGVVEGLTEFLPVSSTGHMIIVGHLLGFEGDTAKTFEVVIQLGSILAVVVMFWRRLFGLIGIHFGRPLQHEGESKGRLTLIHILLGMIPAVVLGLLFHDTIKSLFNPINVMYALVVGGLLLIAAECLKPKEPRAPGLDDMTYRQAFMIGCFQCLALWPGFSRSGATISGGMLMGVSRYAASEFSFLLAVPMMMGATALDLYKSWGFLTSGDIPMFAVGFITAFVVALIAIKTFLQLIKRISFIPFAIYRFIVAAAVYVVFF

[26] = system: Mycolicibacterium smegmatis; test: Antimycobacterial activity against Mycobacterium smegmatis assessed as inhibition of mycobacterial growth incubated for 48 hrs in presence of 50 uM undecaprenyl phosphate; assay type: functional, organism-based
[27] = system: Mycolicibacterium smegmatis; test: Antimycobacterial activity against Mycobacterium smegmatis assessed as inhibition of mycobacterial growth incubated for 48 hrs in presence of 100 uM menaquinone-7; assay type: functional, organism-based
[28] = system: Mycolicibacterium smegmatis; test: Rescue fold, ratio of IC50 for antimycobacterial activity against Mycobacterium smegmatis in presence of 100 uM menaquinone-7 to IC50 for antimycobacterial activity against Mycobacterium smegmatis; assay type: functional
[29] = molecular target: T4, Decaprenyl diphosphate synthase (Mycobacterium tuberculosis, UniProt P9WFF7); test: Inhibition of Mycobacterium tuberculosis cis-decaprenyl diphosphate synthase
T4 sequence (P9WFF7 whole entry): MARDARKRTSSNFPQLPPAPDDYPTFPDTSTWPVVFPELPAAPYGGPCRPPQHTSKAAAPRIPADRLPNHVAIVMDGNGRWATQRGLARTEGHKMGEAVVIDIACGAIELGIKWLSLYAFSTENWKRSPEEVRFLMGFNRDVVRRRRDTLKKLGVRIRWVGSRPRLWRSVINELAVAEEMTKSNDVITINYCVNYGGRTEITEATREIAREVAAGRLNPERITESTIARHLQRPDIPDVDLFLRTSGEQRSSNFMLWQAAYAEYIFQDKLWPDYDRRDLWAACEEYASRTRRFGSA

CC(C)=CCC/C(C)=C/CNCCNC1C2CC3CC(C2)CC1C3 (stereo not given) [SQ109] gave an IC50 [1] of 16 µM, a Kd [2] of 400 µM and an IC50 [3] of 4.8 µM. For the same compound, the IC50 [4] was 6.1 µM, the IC50 [5] was ≥ 50 µM and the IC50 [6] was ≥ 50 µM. It also gave a Kd [7] of 1.6 µM, an IC50 [8] of 4.2 µM and an IC50 [9] of 14 µM. For the same compound, the IC50 [10] was ≥ 50 µM, the IC50 [11] was 8.9 µM and the Drug metabolism [12] was “Metabolite_Notdetected”. For the same compound, the IC50 [13] was 2.9 µM, the “Ratio IC50” value [14] was 2 and the IC50 [15] was ≥ 50 µM. The IC50 (Cell membrane) was 2.3 µM, the IC50 [16] was 1.4 µM and the IC50 [17] was ≥ 50 µM. The “Ratio IC50” value [18] was 6.4, the IC50 [19] was 14 µM and the IC50 [20] was 0.41 µM. The IC50 [21] was 3.7 µM, the IC50 [22] was 2.1 µM and the IC50 [23] was ≥ 50 µM. For the same compound, the IC50 [24] was 1.5 µM, the IC50 [25] was 32 µM and the IC50 [26] was 16 µM. The IC50 [27] was 6.5 µM, the “Ratio IC50” value [28] was 3 and the IC50 [29] was ≥ 50 µM.

Source: ChEMBL document CHEMBL5331106, “Investigation into the Mechanism of Action of the Tuberculosis Drug Candidate SQ109 and Its Metabolites and Analogues in Mycobacteria” (J Med Chem, 2023)
